# Test results: patent US20220040316A1, “TRIPLE COMBINATION THERAPIES FOR TARGETING MITOCHONDRIA AND KILLING CANCER STEM CELLS” (LUNELLA BIOTECH, INC., priority 2018, published 2022)
# “Also recorded” adds a separate entry of the source.
# What was measured:
# MCF7 cells [1] = assay: Metabolic flux analysis (Seahorse XFe96, OCR and ECAR); assay type: cell-based, human
# Procedure: Metabolic Flux Analysis: Real-time oxygen consumption rates (OCR) and extracellular acidification rates (ECAR) rates in MCF7 cells were determined using the Seahorse Extracellular Flux (XFe96) analyzer (Seahorse Bioscience, USA). Briefly, 1.5×10^4 cells per well were seeded into XFe96 well cell culture plates, and incubated overnight to allow cell attachment. Then, cells were treated with antibiotics for 72 h. Vehicle-alone control cells were processed in parallel. After 72 hours of incubation, cells were washed in pre-warmed XF assay media (or for OCR measurement, XF assay media supplemented with 10 mM glucose, 1 mM Pyruvate, 2 mM L-glutamine and adjusted at 7.4 pH). Cells were then maintained in 175 μL/well of XF assay media at 37° C., in a non-CO2 incubator for 1 hour. During the incubation time, we loaded 25 μL of 80 mM glucose, 9 μM oligomycin, and 1M 2-deoxyglucose (for ECAR measurement) or 10 μM oligomycin, 9 μM FCCP, 10 μM rotenone, 10 μM antimycin A (for OCR measurement), in XF assay media into the injection ports in the XFe96 sensor cartridge. Measurements were normalized by protein content (Bradford assay). Data sets were analyzed using XFe96 software and GraphPad Prism software, using one-way ANOVA and Student's t-test calculations. All experiments were performed in quintuplicate, three times independently.
# U937 cells = U937 cells incubated 15 minutes in media containing 3 μM Vitamin C; cited from earlier work
# rat heart = conditions: Vitamin C alone, hypoxia, previous studies; cited from earlier work
# [2] = oral administration; cited from earlier work
# MCF7 cells [3] = assay: Mammosphere formation assay (MFE, CSC propagation) in MCF7 cells; assay type: cell-based, human
# Procedure: The data represents mammosphere counts after exposure to a compound, as a percentage of a control. The compounds were tested at concentrations of 1.5 μM, 3 μM, 6 μM, and 12 μM.
# Mammosphere Formation Assay: A single cell suspension was prepared using enzymatic (1× Trypsin-EDTA, Sigma Aldrich, #T3924), and manual disaggregation (25 gauge needle). Cells were plated at a density of 500 cells/cm2 in mammosphere medium (DMEM-F12+B27+20 ng/ml EGF+PenStrep) under non-adherent conditions, in culture dishes pre-coated with (2-hydroxyethylmethacrylate) (poly-HEMA, Sigma, #P3932), called “tumor-sphere plates”. Vehicle alone (DMSO) control cells were processed in parallel. Cells were grown for 5 days and maintained in a humidified incubator at 37° C. After 5 days of culture, 3D mammospheres >50 μm were counted using an eye piece (“graticule”), and the percentage of cells plated which formed spheres was calculated and is referred to as percent mammosphere formation (MFE, and was normalized to one (1=100% MSF).
# senescent fibroblasts = conditions: azithromycin by itself; cited from earlier work
# [4] = system: breast cancer tumor samples; assay: ABC trial pilot study: CSC markers in tumor samples after oral doxycycline; assay type: in vivo, human
# Procedure: Doxycycline impacts cancer growth through inhibition of CSC propagation with an IC-50 between 2-to-10 μM. The Antibiotic for Breast Cancer (ABC) trial was conducted at The University of Pisa Hospital. The ABC trial aimed to assess the anti-proliferative and anti-CSC mechanistic actions of doxycycline in early breast cancer patients. […] A pilot study of the ABC trial confirmed that doxycycline treatment successfully decreases the expression of CSC markers in breast cancer tumor samples. […] This represents a 90% positive response rate.
# CSCs = assay: Inhibition of CSC propagation / CSC inhibition activity (assay not specified); assay type: cell-based
# MCF7 cells [5] = assay: Cellular retention by green auto-fluorescence; assay type: cell-based, human; conditions: 10 μM, 72 hours, washed with PBS
# Procedure: FIGS. 16A-16C are images comparing the cellular retention of the doxycycline-myristate conjugate, to unconjugated doxycycline. MCF7 cells were cultured in tissue culture media in the presence of either therapeutic agent (i.e., the doxycycline-myristate conjugate or unconjugated doxycycline), at a concentration of 10 μM, for 72 hours. Then, the cells were washed with PBS and any therapeutic agent retained within the cells was visualized by green auto-fluorescence, from the excitation of the tetracycline ring structure. Control cells were incubated with vehicle-alone. […] The original color in the images has been inverted, to […], and the darker regions of FIG. 16B indicate increased cellular retention of the conjugated therapeutic agent.
# MCF7 cells [6] = assay: Cell viability, bulk MCF7 cells; assay type: cell-based, human; conditions: range of concentrations up to 20 μM
# From the text: (§1) Embodiments of therapeutic agents conjugated with targeting signals have shown less toxicity in bulk cancer cells and normal fibroblasts compared to unconjugated therapeutic agents. For example, FIGS. 17A and 17B show cell viability data for doxycycline and the doxycycline-myristate conjugate shown as compound [1], for bulk MCF7 cells and bulk BJ cells, respectively. The data represents cell viability expressed as a percentage of a control. […] Similar behavior has been seen in other therapeutic agents conjugated with targeting signals.
# BJ cells = assay: Cell viability, bulk BJ cells; assay type: cell-based; conditions: range of concentrations up to 20 μM
# From the text: as §1
# [7] = MCF7 monolayers pre-treated 3-days, doxycycline 1 μM, azithromycin 1 μM, Vitamin C 250 μM as applicable, vs control
# [8] = breast cancer patients treated with doxycycline
structure (smiles),measurement,setting,value
"O=C1O[C@H]([C@@H](O)CO)C(O)=C1O [Vit C, Ascorbic Acid]",ATP production / ATP levels,MCF7 cells [1]; [7],significantly increased
same,basal respiration,MCF7 cells [1]; [7],significantly increased
same,glycolysis (ECAR),MCF7 cells [1]; [7],significantly increased
same,glycolytic reserve,MCF7 cells [1]; [7],significantly increased
same,glycolytic reserve capacity,MCF7 cells [1]; [7],decreasing
same,maximal respiration,MCF7 cells [1]; [7],significantly increased
same,oxidative mitochondrial metabolism (OCR),MCF7 cells [1]; [7],significantly increased; also recorded: increases
same,increase of mitochondrial ATP production,"MCF7 cells [1]; Vitamin C alone, MCF7 cells",up to 2 fold
same,Vitamin C level reached in mitochondria,U937 cells,5 mM
same,increase of mitochondrial ATP production,rat heart,up to 1.5 fold
same,peak Vitamin C concentration in blood/serum/plasma,[2],about 250
CC[C@H]1OC(=O)[C@H](C)[C@@H](O[C@H]2C[C@@](C)(OC)[C@@H](O)[C@H](C)O2)[C@H](C)[C@@H](O[C@@H]2O[C@H](C)C[C@H](N(C)C)[C@H]2O)[C@](C)(O)C[C@@H](C)CN(C)[C@H](C)[C@@H](O)[C@]1(C)O [azithromycin],inhibition of mammosphere formation,MCF7 cells [3]; drug alone at low concentrations (0.1 μM and 1 μM),little or no effect
same,efficiency of senolytic activity (removal of senescent fibroblasts),senescent fibroblasts,~97%
C[C@H]1c2cccc(O)c2C(=O)C2=C(O)[C@]3(O)C(=O)C(C(N)=O)=C(O)[C@@H](N(C)C)[C@@H]3[C@@H](O)[C@@H]21 [doxycycline],positive response rate (CD44),[4]; [8],90%
same,"rise in CD44, one patient",[4]; [8],15%
same,"decrease in the stemness marker CD44, post-doxycycline vs pre-doxycycline tumor samples","[4]; early breast cancer patients, short-term pre-operative oral doxycycline",40%
CCCCCCCCCCCCCC(=O)N(C)[C@H]1C[C@@H](C)O[C@@H](O[C@@H]2[C@@H](C)[C@H](O[C@H]3C[C@@](C)(OC)[C@@H](O)[C@H](C)O3)[C@@H](C)C(=O)O[C@H](CC)[C@@](C)(O)[C@H](O)[C@@H](C)N(C)C[C@H](C)C[C@@]2(C)O)[C@@H]1O [compound [15]],potency and selectivity for CSCs compared to azithromycin alone,CSCs,improved potency and selectivity
"CCCCCCCCCCCCCC(=O)Nc1ccc2c(c1O)C(=O)C1=C(O)[C@]3(O)C(=O)C(C(N)=O)=C(O)[C@@H](N(C)C)C3[C@@H](O)C1[C@H]2C (stereo partly drawn) [doxycycline-myristate conjugate, (4S,5S,6R,12aS)-4-(dimethylamino)-3,5,10,12,12a-pentahydroxy-6-methyl-1,11-dioxo-9-(tetradecanoylamino)-4a,5,5a,6-tetrahydro-4H-tetracene-2-carboxamide]",potency in mammosphere assay compared with unconjugated doxycycline,"MCF7 cells [3]; MCF7, 1.5 μM, 3 μM, 6 μM and 12 μM, mammosphere counts as percentage of control",more potent
same,times more potent than doxycycline for inhibiting CSC propagation,"MCF7 cells [3]; from IC50 values, MCF7 mammosphere assay",over 5 times
same,CSC inhibition activity compared with the unconjugated antibiotic,CSCs; fatty acid conjugates (myristate where stated),better CSC inhibitory properties
same,cellular retention compared to doxycycline alone,MCF7 cells [5],significantly improved cellular retention
same,toxicity (cell viability as percentage of control) compared with doxycycline,MCF7 cells [6],less toxic
same,toxicity (cell viability as percentage of control) compared with doxycycline,BJ cells,less toxic
